{"source": "patent US20240239786A1", "about": "“COMPOSITIONS AND METHODS FOR THE TREATMENT AND PREVENTION OF CANCER” (Yale University, priority 2021, published 2024)", "test_system": "HR repair", "assay": "HR reporter assay in SKOV3-DR-GFP cells", "assay_type": "cell-based", "settings": "Homo sapiens, SK-OV-3, I-SceI-induced DSB, 48 hr, read-out: IC50 for inhibiting HR repair", "description": "Cells were transfected with the ISceI-expressing plasmid and then treated various concentrations of DB4 for 48 hr. Cells were harvested, stained with 7-AAD, and analyzed by flow cytometry for GFP-positive cells indicative of HR repair activity. […] Cells were transfected with the ISceI-expressing plasmid and treated with various concentrations of DB4. Cells were harvested, stained with 7-AAD, and stained, and analyzed by flow cytometry for GFP-positive cells indicative of NHEJ activity. Data are means±SD (N=3). *, p<0.05; **, p<0.01, compared with the 0 μM control of ISceI-transected cells. […] Cells were also scored for nuclei containing equal or more than 10 distinct Rad51 foci to determine the percentage of cells positive for Rad51 foci. […] Protein was assessed by western blot analysis for the levels of γH2AX, p-H1, cyclin A2, p-CDK1/2, and HSC70. […] The band density of γH2AX indicative of DSBs was quantified by densitometry. […]\nThe ability of DB4 to inhibit endonuclease-induced DSB repair of reporter genes in SKOV3 cells was evaluated. […]\nSKOV3-DR-GFP cells were established as described previously (Lin Z P et al., 2014, Molecular Cancer Res, 12:381-393). […] Cells were then trypsinized, stained with 7-AAD, and analyzed for the percentage of GFP-positive and […] cells by flow cytometry using an LSR II flow cytometer (BD Biosciences) and FlowJo software (Tree Star; Ashland, OR). […]"}
{"smiles": "C=CCn1c(SCc2cccc(Cl)c2)nnc1C1CCN(Cc2nc3ccccc3s2)CC1", "note": "[DB4, 2-[(4-{4-allyl-5-[(3-chlorobenzyl)thio]-4H-1,2,4-triazol-3-yl}-1-piperidinyl)methyl]-1,3-benzothiazole]", "values": [{"measurement": "IC50", "result": 5.4, "unit": "µM"}]}
